Measurements as given in patent publication US9458095B2, “Oligo-benzamide compounds and their use in treating cancers” (The Board of Regents of the University of Texas System, priority 2011, dated 2016).

How the values were obtained:
[1] = tested on: ARE activity in CWR22v1 cells (ARwt and ARv7); test: ARE-luciferase reporter in CWR22v1 cells; assay type: cell-based; conditions: 10 μM casodex or MDV3100, 48 h, without androgen (EtOH)
Experimental: FIG. 4. Effect of T6 on basal level of ARE expression in CWR22v1 cells. CWR22v1 cells were transiently transfected with ARE-luciferase. Cells were maintained for 48 h without (EtOH) and in the presence of 100 nM of peptidomimetic or volume equivalent of vehicle (DMSO) control or 10 μM of casodex or MDV3100.

ARv7 regulated genes = test: Q-PCR of ARv7 regulated genes; assay type: cell-based; conditions: data not shown
Excerpt: Finally, confirmation of the role of T6 in modulating ARv7 driven transcription was obtained by evaluation of the gene expression of ARv7 regulated genes.

CH157 = test: Growth inhibition of meningioma cell line CH157; assay type: cell-based
Experimental: (§1) FIGS. 10A-B. Testing of oligo-benzamide (TK 11) for growth inhibitor of two meningioma brain cancer cell lines. (FIG. 10A) Results for cell line CH157. (FIG. 10B) Results for cell line IOMM-LEE.
(§2) Cell proliferation rates were measured by using MTT Cell Viability Assay in 96-well micro plates. Model cells were seeded in 96-well plates (2×10^3 cells/well) in DMEM or RPMI medium containing 10% serum. After an overnight incubation, cells were treated with varying concentrations of oligo-benzamides for 72 h and growth inhibition was determined by using traditional MTT assay (Sigma) following manufacturer's instructions.

ovarian cancer cell line = test: Growth inhibition of ovarian cell lines (MTT); assay type: cell-based; conditions: 72 h
Experimental: FIG. 7. Testing of oligo-benzamides for growth inhibition of ovarian cell lines.
Human Breast cancer cells MCF7, ZR75, glioma cells U87, T98G, LN229, and the ovarian cancer cell line SKOV3 were obtained from the American Type Culture Collection (ATCC) and were maintained using ATCC recommended media.
as §2

U87 = test: Growth inhibition of brain cancer cell line U87 (MTT); assay type: cell-based, Human; conditions: 72 h
Experimental: (§3) FIGS. 8A-B. Testing of oligo-benzamides for growth inhibitor of two brain cancer cell lines. (FIG. 8A) Results for cell line U87. (FIG. 8B) Results for cell line LN229. […] Human Breast cancer cells MCF7, ZR75, glioma cells U87, T98G, LN229, and the ovarian cancer cell line SKOV3 were obtained from the American Type Culture Collection (ATCC) and were maintained using ATCC recommended media. Cell proliferation rates were measured by using MTT Cell Viability Assay in 96-well micro plates. Model cells were seeded in 96-well plates (2×10^3 cells/well) in DMEM or RPMI medium containing 10% serum. After an overnight incubation, cells were treated with varying concentrations of oligo-benzamides for 72 h and growth inhibition was determined by using traditional MTT assay (Sigma) following manufacturer's instructions.

LN229 = test: Growth inhibition of brain cancer cell line LN229 (MTT); assay type: cell-based, Human; conditions: 72 h
Experimental: as §3

IOMM-LEE = test: Growth inhibition of meningioma cell line IOMM-LEE; assay type: cell-based
Experimental: as §1, §2

[2] = tested on: Tamoxifen therapy resistant MCF7-HER2 and MCF7-TAM cells; test: Therapy resistance assay (MTT), hormonal therapy resistant cells; assay type: cell-based, Human; conditions: tamoxifen (10^-7M) containing media, P<0.05
Experimental: FIG. 13. Testing of oligo-benzamides for growth inhibition of hormonal therapy resistant cells.
Tamoxifen (Tam) therapy resistant MCF7-HER2 and MCF7-TAM cells were cultured in tamoxifen (10^-7M) containing media in the presence or absence of TK11 and proliferation was measured by MTT assay (Sigma) following manufacturer's instructions.

[3] = tested on: IOSE immortalized normal ovarian cells; test: Growth of normal ovarian cells; assay type: cell-based
Experimental: FIG. 11. Testing of oligo-benzamides on growth of normal ovarian cells. IOSE are immortalized normal ovarian cells.
as §2

[4] = molecular target: T1, PELP1 interaction with estrogen receptor (Homo sapiens, UniProt P03372); test: PELP1-ER interaction, GST pull down assay; assay type: binding; conditions: TK11 500 nM, purified ER, GST-PELP1, E2
T1 construct: purchased
T1 sequence (P03372 1-595): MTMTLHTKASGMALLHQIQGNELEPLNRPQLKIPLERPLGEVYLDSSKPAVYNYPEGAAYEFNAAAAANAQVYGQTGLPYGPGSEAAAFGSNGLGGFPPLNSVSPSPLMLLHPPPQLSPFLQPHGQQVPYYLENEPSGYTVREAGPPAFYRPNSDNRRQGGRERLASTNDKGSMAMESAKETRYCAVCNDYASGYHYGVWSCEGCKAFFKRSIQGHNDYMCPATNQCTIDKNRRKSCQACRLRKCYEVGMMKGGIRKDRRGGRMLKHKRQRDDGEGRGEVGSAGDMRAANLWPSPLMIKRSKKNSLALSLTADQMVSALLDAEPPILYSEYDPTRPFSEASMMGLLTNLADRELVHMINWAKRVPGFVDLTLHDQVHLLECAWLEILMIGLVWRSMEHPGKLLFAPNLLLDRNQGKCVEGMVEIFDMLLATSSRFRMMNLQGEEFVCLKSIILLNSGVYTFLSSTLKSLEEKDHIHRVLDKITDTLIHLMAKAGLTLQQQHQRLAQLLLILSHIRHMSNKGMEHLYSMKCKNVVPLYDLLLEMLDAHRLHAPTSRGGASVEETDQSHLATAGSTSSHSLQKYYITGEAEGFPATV
Experimental: FIGS. 12A-C. Testing of oligo-benzamides for growth inhibition of estrogen driven proliferation. (FIG. 12A) Structure of peptidomimetics used in the assays. (FIG. 12B) Effect of tribenzamimetics on E2 driven proliferation using ZR75 model cells. (FIG. 12C) Effect of tribenzamides on PELP1-ER interaction. *, P<0.05.
Purified commercially available estrogen receptor (ER) was incubated with biotin-con or biotin-TK11 peptidomimetic in the presence of estrogen (E2). TK11 interaction with ER was determined using avidin immunoprecipitation (IP) followed by western blotting. For some experiments, MCF-7 cells were stimulated with estrogen (E2), nuclear lysates were prepared and incubated with biotin-con or biotin-TK11 peptidomimetic. TK11 interactions with endogenous ER were analyzed by avidin IP. For some experiments, purified ER, GST-PELP1 was incubated in the presence of E2 and ability of control or TK11 (500 nM) to compete PELP1 interaction with ER was determined GST pull down assay.

[5] = tested on: prostate cancer cell line; test: Growth inhibition of prostate cancer cell line; assay type: cell-based
[6] = tested on: triple negative breast cancer cell line; test: Growth inhibition of breast cell lines (MTT); assay type: cell-based; conditions: 72 h
Experimental: FIG. 6. Testing of oligo-benzamides for growth inhibition of breast cell lines.
as §2

Row | Compound | basal ARE activity in CWR22v1 cells [1] | expression of a panel of ARv7 regulated genes (Q-PCR) (ARv7 regulated genes) | growth inhibition, meningioma cell line CH157 (specificity versus prostate cancer cell line) (CH157) | growth inhibition, ovarian cancer cell line (ovarian cancer cell line) | growth inhibition, brain cancer cell line U87 (U87) | growth inhibition, brain cancer cell line LN229 (LN229) | growth inhibition, meningioma cell line IOMM-LEE (specificity versus prostate cancer cell line) (IOMM-LEE) | growth of hormonal therapy resistant cells [2] | potency in inhibiting growth of normal ovarian cells (IOSE) [3] | blocking PELP1 oncogene interactions with estrogen receptor [4] | potency in inhibiting prostate cancer cell line [5] | growth inhibition, triple negative breast cancer cell line [6]
1 | CC(O)(CS(=O)(=O)c1ccc(F)cc1)C(=O)Nc1ccc(C#N)c(C(F)(F)F)c1 (centres unmarked) [casodex, reference compound] | neither casodex nor MDV3100 could significantly affect | could not affect |  |  |  |  |  |  |  |  |  | 
2 | CNC(=O)c1ccc(N2C(=S)N(c3ccc(C#N)c(C(F)(F)F)c3)C(=O)C2(C)C)cc1F [MDV3100, reference compound] | neither casodex nor MDV3100 could significantly affect | could not affect |  |  |  |  |  |  |  |  |  | 
3 | CC(C)COc1cc(C(N)=O)ccc1NC(=O)c1ccc(NC(=O)c2ccc([N+](=O)[O-])c(OCCO)c2)c(OCC(C)C)c1 [TK11] |  |  | higher specificity | high potency | high potency | high potency | higher specificity | significantly inhibited | weak potency | very efficient in blocking | weak potency | high potencies
